In patent US20240366558A1, “TREATING LONG COVID-19 WITH UROLITHINS” (Amazentis SA, priority 2021, published 2024):

Key:
Long COVID = test: Patients afflicted with Long COVID administered 500 mg Mitopure (Urolithin A); format: in vivo, human; conditions: three Long COVID patients, patient-indicated
Procedure: Three patients afflicted with Long COVID were administered 500 mg Mitopure™ (Urolithin A). Each patient indicated improvement in symptoms including reduced fatigue and improved muscle function.

human PBMCs = test: RNA-seq transcriptomic analysis / GSEA of PBMCs from healthy elderly supplemented with Urolithin A; format: in vivo; conditions: 500 mg/day for 28 days, end of treatment vs baseline, placebo-filtered
Procedure: RNA was extracted from frozen human PBMCs and quality of extraction controlled with Agilent Fragment Analyzer System. RNA-seq library was prepared as strand-specific cDNA library, after the following steps: Purification of poly-A containing mRNA molecules; mRNA fragmentation; Random primed cDNA synthesis (strand-specific); Adapter ligation and adapter specific PCR amplification. RNA-seq run was performed with the NovaSeq6000 using S4 flowcells with 2×150 bp giving at least 30 million read pairs per sample
The RNA-Seq reads were aligned to the reference human transcriptome using Bowtie generating genome/transcriptome alignments. TopHat identifid the potential exon-exon splice junctions of the initial alignment. Then Cufflinks identified and quantified the transcripts from the preprocessed RNA-Seq alignment assembly. After this, Cuffmerge merged the identified transcript pieces to full length transcripts and annotates the transcripts based on the given annotations. Finally, merged transcripts from two or more samples/conditions were compared, using Cuffdiff to determine the differential expression levels at transcript and gene level including a measure of significance between samples/conditions.
Gene set enrichment analysis (GSEA) was conducted using R package clusterProfiler, v. 3.18.068. Enrichments of Gene Ontology (GO) Biological Process (BP) was investigated. All the genes subjected to the DE analysis and that passed the independent filtering of DEseq2 were ranked by shrunk log 2 fold change values and used as input data for the analysis. Ensembl IDs of the genes were converted to Entrez IDs for the analysis using biomaRt, v. 2.46. Minimum and maximum genes et sizes were set to 15 and 500, respectively. In order to adjust for the placebo effect, the GSEA results of Urolithin A at 500 mg were filtered to exclude enriched terms (p-value <0.05) obtained from the GSEA of the Placebo DEGs. Key pathways were visualised as bar plots ranked by Normalized Enrichment score (NES).
RNA-seq transcriptomic analysis was performed in healthy elderly supplemented with either Urolithin A (UA) at 500 mg/day or Placebo for 28 days. Peripheral blood mononuclear cells (PBMCs) were isolated and collected at baseline and at the end of the study. RNA was extracted from these subjects and used to perform RNA-seq and determine biological pathways modulated specifically by Urolithin A, but not Placebo, comparing end-of treatment to baseline

O=c1oc2cc(O)ccc2c2ccc(O)cc12 [Urolithin A, urolithin A]
fatigue (Long COVID): reduced | muscle function (Long COVID): improved | symptoms (Long COVID): improvement | Gene Ontology gene set "mitochondrial gene expression" (human PBMCs): up-regulated | Gene Ontology gene set "mitochondrial respiratory chain complex assembly" (human PBMCs): up-regulated | Gene Ontology gene set "neutrophil activation" (human PBMCs): down-regulated | Gene Ontology gene set "oxidative phosphorylation" (human PBMCs): up-regulated | Gene Ontology gene set "regulation of response to cytokine stimulus" (human PBMCs): down-regulated
